Legend:
human ApoA-I promoter = assay: ApoA-I promoter induction in Caco-2 intestinal cells (pAI.474-Luc luciferase reporter); type: cell-based; details: Caco-2 cells, 15 μM, 48 hours incubation, luciferase activity vs control samples
Description: To examine the effects of compounds of the invention to increase ApoA-I expression, Caco-2 cells, an intestinal cell line derived from human epithelial intestinal cells, were grown under conditions recommended by the ATCC and summarized in United States Patent Application Publication No. 20040033480 (“Wong”), incorporated herein by reference.
Briefly, the promoter region of the gene encoding human ApoA-I was isolated and ligated upstream of the firefly luciferase gene to construct the reporter plasmid pAI.474-Luc. This reporter plasmid and pRSV-β-galactosidase (as a control for transfection efficiency) were co-transfected to Caco-2 cells. The Caco-2 cells were then incubated in a MEM selection media containing 20% fetal calf serum supplemented with G418 (final concentration: 0.5 mg/mL, Gibco) to give established strains that stably express from the reporter gene. The strains were seeded in 6-well culture plates and incubated for 48 hours at 37° C. under 5% carbon dioxide. Cells were starved for 24 hrs in MEM selection media containing 0.5% FBS. Then, a solution of a compound of the invention in DMSO or other appropriate solvent was added to the wells at a final concentration of 0 to 100 μM in MEM selection media containing 0.5% FBS.
After further incubation for 48 hours, the cells were harvested and lysed using Reporter Lysis Buffer (PROMEGA E3971), and 50 μL of luciferase assay reagent (PROMEGA E4550 Luciferase Reporter 1000 assay system) was added to measure luciferase activity with a luminometer (Fluoroskan Ascent FL from Thermo electron Corporation). Luciferase activity was normalized to lysate protein concentrations, measured using Bradford Reagent (BioRad Protein Assay reagent Cat #500-0006). The luciferase activity of cells treated with various concentrations of test compounds was compared to that of solvent control sample (i.e., solvent without any compound of the present invention added) and untreated control sample.

melting point [°C] | SMILES | ApoA-I Promoter Induction (human ApoA-I promoter)
84 to 86 | CC(=O)Oc1ccc(C2=CC(C)(C)c3ccccc3O2)cc1 [Example 69, 4-(4,4-Dimethyl-4H-chromen-2-yl)phenyl acetate] | increased
137 to 140 | Oc1ccc(C2=COc3ccccc3O2)cc1 [Example 70, 4-(Benzo[b][1,4]dioxin-2-yl)phenol] | increased
167 to 169 | CC(=O)Oc1ccc(-c2cc(=O)c3cccnc3o2)cc1 [Example 75, 4-(4-Oxo-4H-pyrano[2,3-b]pyridine-2-yl)phenyl acetate] | increased
123 to 125 | CC(=O)Oc1ccc(C2=COc3ccccc3O2)cc1 [Example 77, 4-(Benzo[b][1,4]dioxin-2-yl)phenyl acetate] | increased
261 to 263 | O=c1cc(-c2ccc([N+](=O)[O-])cc2)oc2ncccc12 [Example 80, 2-(4-Nitrophenyl)-4H-pyrano[2,3-b]pyridine-4-one] | no increase
237 to 238 | O=c1c(-c2ccc(O)cc2)coc2ccccc12 [Example 84, 3-(4-Hydroxyphenyl)-4H-chromen-4-one] | increased
262 to 264 | O=c1c(-c2ccc(O)cc2)coc2ncccc12 [Example 85, 3-(4-Hydroxyphenyl)-4H-pyrano[2,3-b]pyridine-4-one] | increased

— patent US8093273B2, “Flavanoids and isoflavanoids for the prevention and treatment of cardiovascular diseases” (Resverlogix Corp., priority 2004, dated 2012)
